Results reported in ChEMBL document CHEMBL3632614, “Small molecules that promote regenerative repair for pancreatic and cardiovascular health” (2015).

Columns and labels:
[1] = Induction of rat beta cell proliferation after 3 days relative to control; type: functional, Pancreatic beta cell
Rattus norvegicus = species on record: Rattus norvegicus; test: Increase in rat beta cell mass in rat T1DM model after 45 days; type: functional
[2] = Induction of rat beta cell proliferation assessed as increase in PDX1 expressing cells relative to control; type: functional, Pancreatic beta cell

COC(=O)C1=C(C)NC(C)=C([N+](=O)[O-])C1c1ccccc1C(F)(F)F (centres undefined)
fold change (FC) [1]: 2.5

CN1CCN(Cc2ccc(NC(=O)Cc3ccc(Oc4cc(NC(=O)C5CC5)ncn4)cc3)cc2C(F)(F)F)CC1
Activity (Rattus norvegicus): 50% | Activity [1]: <=4%

Nc1ncnc2nc(-c3ccc(N4CCOCC4)nc3)cc(-c3cccc(Br)c3)c12
fold change (FC) [2]: 2
